Among the data in ChEMBL document CHEMBL3044687, “Microwave-assisted synthesis of some novel and potent antibacterial and antifungal compounds with biological screening” (2012) are zone of inhibition values, retold here.

What all share (type): functional
What all share (conditions): read-out: DIZ

Assay [1] deals with Pseudomonas aeruginosa. The assay is described as follows: Antibacterial activity against Pseudomonas aeruginosa at 100 ug/ml after 24 hr by disk diffusion method. (In general: In agar diffusion tests the substance spreads into inoculated agar from a disc or well.)
Assay [2] relates to Candida albicans. The assay is described as follows: Antifungal activity against Candida albicans at 200 ug/ml after 48 hr by disk diffusion method.
Assay [3] deals with Pseudomonas aeruginosa. The experiment in a line: Antibacterial activity against Pseudomonas aeruginosa at 50 ug/ml after 24 hr by disk diffusion method.
In assay [4] the test system is Aspergillus niger. The experiment in a line: Antifungal activity against Aspergillus niger at 50 ug/ml after 48 hr by disk diffusion method.
Assay [5] relates to Candida albicans. The assay is described as follows: Antifungal activity against Candida albicans at 100 ug/ml after 48 hr by disk diffusion method.
Assay [6] concerns Staphylococcus aureus. The assay is described as follows: Antibacterial activity against Staphylococcus aureus at 200 ug/ml after 24 hr by disk diffusion method.
Assay [7] concerns Escherichia coli. The experiment in a line: Antibacterial activity against Escherichia coli at 100 ug/ml after 24 hr by disk diffusion method.
Assay [8] concerns Aspergillus niger. The assay is described as follows: Antifungal activity against Aspergillus niger at 100 ug/ml after 48 hr by disk diffusion method.
Assay [9] relates to Staphylococcus aureus. The experiment in a line: Antibacterial activity against Staphylococcus aureus at 100 ug/ml after 24 hr by disk diffusion method.
Assay [10] concerns Escherichia coli. The assay is described as follows: Antibacterial activity against Escherichia coli at 50 ug/ml after 24 hr by disk diffusion method.
Assay [11] deals with Bacillus subtilis. The experiment in a line: Antibacterial activity against Bacillus subtilis at 200 ug/ml after 24 hr by disk diffusion method.
The test system of assay [12] is Staphylococcus aureus. The assay is described as follows: Antibacterial activity against Staphylococcus aureus at 50 ug/ml after 24 hr by disk diffusion method.
Assay [13] deals with Bacillus subtilis. The experiment in a line: Antibacterial activity against Bacillus subtilis at 50 ug/ml after 24 hr by disk diffusion method.
Assay [14] has as its system Escherichia coli. The experiment in a line: Antibacterial activity against Escherichia coli at 200 ug/ml after 24 hr by disk diffusion method.
Assay [15] has as its system Candida albicans. The experiment in a line: Antifungal activity against Candida albicans at 50 ug/ml after 48 hr by disk diffusion method.
The test system of assay [16] is Aspergillus niger. The experiment in a line: Antifungal activity against Aspergillus niger at 200 ug/ml after 48 hr by disk diffusion method.
Assay [17] concerns Pseudomonas aeruginosa. The assay is described as follows: Antibacterial activity against Pseudomonas aeruginosa at 200 ug/ml after 24 hr by disk diffusion method.
The test system of assay [18] is Bacillus subtilis. The assay is described as follows: Antibacterial activity against Bacillus subtilis at 100 ug/ml after 24 hr by disk diffusion method.

For the compound `O=C1N(c2ccccc2)C(=O)C(c2ccccc2)(c2ccccc2)N1CNc1nccs1`, the zone of inhibition at 100 µg/mL is 12 mm in the assay on Pseudomonas aeruginosa [1]; 12 mm with Candida albicans [5]; 10 mm in the assay on Escherichia coli [7]; 11 mm in the assay on Aspergillus niger [8]; 10 mm in the assay on Staphylococcus aureus [9]. For the same compound, the zone of inhibition at 200 µg/mL came out at 13 mm in the assay on Candida albicans [2]; 18 mm in the assay on Staphylococcus aureus [6]; 13 mm in the assay on Bacillus subtilis [11]; 18 mm with Escherichia coli [14]; 11 mm with Aspergillus niger [16]; 18 mm with Pseudomonas aeruginosa [17]. Besides, the zone of inhibition at 50 µg/mL with Pseudomonas aeruginosa [3] is 4 mm; in the assay with Aspergillus niger [4] it was 11 mm; in the assay on Escherichia coli [10] it was 5 mm; with Staphylococcus aureus [12] it was 4 mm; in the assay with Bacillus subtilis [13], 5 mm; in the assay with Candida albicans [15], 11 mm.
`CCN(CC)CN1C(=O)N(c2ccccc2)C(=O)C1(c1ccccc1)c1ccccc1`: the zone of inhibition at 100 µg/mL with Pseudomonas aeruginosa [1] stood at 9 mm; with Bacillus subtilis [18], 9 mm; in the assay with Candida albicans [5], 10 mm; with Escherichia coli [7] it was 13 mm; in the assay with Aspergillus niger [8], 10 mm; in the assay on Staphylococcus aureus [9], 10 mm. Moreover, the zone of inhibition at 200 µg/mL turned out to be 11 mm in the assay on Candida albicans [2]; 14 mm in the assay on Staphylococcus aureus [6]; 13 mm with Bacillus subtilis [11]; 18 mm with Escherichia coli [14]; 12 mm with Aspergillus niger [16]; 14 mm in the assay with Pseudomonas aeruginosa [17]. In addition, the zone of inhibition at 50 µg/mL with Pseudomonas aeruginosa [3] turned out to be 5 mm; in the assay on Aspergillus niger [4], 8 mm; in the assay with Escherichia coli [10], 3 mm; in the assay on Staphylococcus aureus [12] it was 5 mm; in the assay with Bacillus subtilis [13] it was 3 mm; in the assay with Candida albicans [15], 9 mm.
In the case of `CN(C)CN1C(=O)N(c2ccccc2)C(=O)C1(c1ccccc1)c1ccccc1`, the zone of inhibition at 100 µg/mL came out at 10 mm in the assay on Pseudomonas aeruginosa [1]; 10 mm in the assay with Bacillus subtilis [18]; 18 mm in the assay with Candida albicans [5]; 13 mm with Escherichia coli [7]; 18 mm in the assay on Aspergillus niger [8]; 9 mm in the assay on Staphylococcus aureus [9]. In addition, the zone of inhibition at 200 µg/mL came to 19 mm in the assay on Candida albicans [2]; 12 mm in the assay on Staphylococcus aureus [6]; 18 mm in the assay with Bacillus subtilis [11]; 18 mm in the assay on Escherichia coli [14]; 18 mm with Aspergillus niger [16]; 14 mm in the assay with Pseudomonas aeruginosa [17]. In addition, the zone of inhibition at 50 µg/mL in the assay with Pseudomonas aeruginosa [3] was 6 mm; with Aspergillus niger [4], 16 mm; in the assay on Escherichia coli [10] it was 5 mm; in the assay on Staphylococcus aureus [12], 4 mm; with Bacillus subtilis [13], 5 mm; in the assay with Candida albicans [15], 16 mm.
For the compound `CC1(C)S[C@@H]2[C@H](NC(=O)[C@H](N)c3ccccc3)C(=O)N2[C@H]1C(=O)O` [AMPICILLIN], the zone of inhibition at 100 µg/mL in the assay on Pseudomonas aeruginosa [1] came to 14 mm; in the assay on Bacillus subtilis [18] it was 16 mm; in the assay on Escherichia coli [7] it was 18 mm; in the assay on Staphylococcus aureus [9] it was 14 mm. Also, the zone of inhibition at 50 µg/mL with Pseudomonas aeruginosa [3] turned out to be 9 mm; in the assay on Escherichia coli [10] it was 10 mm; in the assay with Staphylococcus aureus [12], 9 mm; with Bacillus subtilis [13] it was 10 mm. Also, the zone of inhibition at 200 µg/mL is 23 mm in the assay with Staphylococcus aureus [6], 26 mm in the assay with Bacillus subtilis [11], 29 mm in the assay with Escherichia coli [14] and 23 mm in the assay on Pseudomonas aeruginosa [17].
Consider `COC1=CC(=O)C[C@@H](C)[C@]12Oc1c(Cl)c(OC)cc(OC)c1C2=O` [GRISEOFULVIN], for which the zone of inhibition at 200 µg/mL with Candida albicans [2] and in the assay with Aspergillus niger [16] was 40 mm each time. In addition, the zone of inhibition at 50 µg/mL was found to be 21 mm in the assay with Aspergillus niger [4] and 18 mm with Candida albicans [15]. The zone of inhibition at 100 µg/mL in the assay with Candida albicans [5] was found to be 25 mm; with Aspergillus niger [8], 24 mm.
